Laboratory results: ChEMBL document CHEMBL6153126, “Design, Synthesis, and Activity Evaluation of Novel Bifenamide Dual-Target Antibacterial Inhibitors and Carrier Based on Infectious Microenvironment” (J Med Chem, 2025)
Calls of active or inactive are those of the source. The rule behind the calls is not given here.

Key:
Klebsiella pneumoniae [1] = assay: Antibacterial activity against Klebsiella pneumoniae ATCC 13883 infected in Kunming mouse model assessed as reduction in alveolar space in lung at 2 mg/kg, iv in presence of biphenyl isopropyl ester by H and E staining based analysis; type: functional, organism-based
[2] = molecular target: T1, UDP-3-O-acyl-N-acetylglucosamine deacetylase (Escherichia coli K-12, UniProt P0A725); assay: Binding affinity to Escherichia coli LpxC assessed as dissociation constant by SPR analysis
T1 sequence (P0A725 whole entry): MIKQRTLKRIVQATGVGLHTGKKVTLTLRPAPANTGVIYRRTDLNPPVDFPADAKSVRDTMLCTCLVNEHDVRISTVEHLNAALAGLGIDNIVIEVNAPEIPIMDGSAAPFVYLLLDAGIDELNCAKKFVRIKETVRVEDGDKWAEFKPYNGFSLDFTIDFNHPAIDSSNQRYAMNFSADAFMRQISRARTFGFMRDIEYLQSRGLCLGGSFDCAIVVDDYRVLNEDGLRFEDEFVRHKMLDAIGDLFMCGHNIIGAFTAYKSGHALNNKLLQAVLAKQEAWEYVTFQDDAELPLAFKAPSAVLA

[3] = molecular target: Programmed cell death 1 ligand 1 (Homo sapiens) (UniProt Q9NZQ7); assay: Binding affinity to PD-L1 (unknown origin) assessed as Change in enthalpy by ITC analysis
[4] = Binding affinity to PD-L1 (unknown origin) assessed as dissociation constant by SPR analysis; design: species or system Homo sapiens
Klebsiella pneumoniae [5] = assay: Induction of intracellular ROS accumulation in Klebsiella pneumoniae ATCC 13883 incubated for 12 hrs by fluorescence microscopic analysis; type: functional, organism-based
Salmonella typhimurium = assay: Antimicrobial activity against Salmonella typhimurium ATCC 14028 assessed as inhibition of microbial growth incubated for 64 hrs by broth-microdilution assay; type: functional, Salmonella enterica subsp. enterica serovar Typhimurium; conditions: Salmonella enterica
Klebsiella pneumoniae [6] = assay: Antimicrobial activity against Klebsiella pneumoniae ATCC 13883 assessed as increase in percentage of bacterial cells by flow cytometry analysis; type: functional, organism-based
[7] = molecular target: T1, UDP-3-O-acyl-N-acetylglucosamine deacetylase; assay: Inhibition of Escherichia coli LpxC
[8] = molecular target: Programmed cell death 1 ligand 1 (Homo sapiens) (UniProt Q9NZQ7); assay: Binding affinity to PD-L1 (unknown origin) assessed as association constant at equilibrium by ITC analysis
Pseudomonas aeruginosa [9] = assay: Antimicrobial activity against Pseudomonas aeruginosa ATCC 9027 assessed as inhibition zone; type: functional; conditions: time 64 hrs
Klebsiella pneumoniae [10] = assay: Antimicrobial activity against Klebsiella pneumoniae ATCC 13883 assessed as inhibition of microbial growth incubated for 64 hrs by broth-microdilution assay; type: functional
HeLa = assay: Cytotoxicity against human HeLa cells incubated for 24 hrs by CCK-8 assay; type: functional, cell-based
Escherichia coli = assay: Antimicrobial activity against Escherichia coli ATCC 8739 assessed as inhibition of microbial growth incubated for 64 hrs by broth-microdilution assay; type: functional
Pseudomonas aeruginosa [11] = assay: Antimicrobial activity against Pseudomonas aeruginosa ATCC 9027 assessed as inhibition of microbial growth incubated for 64 hrs by broth-microdilution assay; type: functional
[12] = molecular target: Programmed cell death protein 1/Programmed cell death 1 ligand 1 (Homo sapiens, UniProt Q9NZQ7); assay: Inhibition of PD-1/PD-L1 (unknown origin) protein-protein interaction preincubated for 15 mins followed by PD-1-Eu addition and measured after 90 mins by TR-FRET assay; type: protein-complex assay
Klebsiella pneumoniae [13] = assay: Antimicrobial activity against Klebsiella pneumoniae ATCC 13883 assessed as inhibition zone; type: functional
A549 = assay: Cytotoxicity against human A549 cells incubated for 24 hrs by CCK-8 assay; type: functional, cell-based; conditions: A549, 24 h
Klebsiella pneumoniae [14] = assay: Antibacterial activity against Klebsiella pneumoniae ATCC 13883 infected in Kunming mouse model assessed as reduction in alveolar space in lung at 2 mg/kg, iv by H and E staining based analysis; type: functional, organism-based
[15] = AUC (0 to t) in rat at 2 mg/kg, iv measured upto 24 hrs by LC-MS/MS analysis; type: ADME, organism-based; conditions: in vivo
[16] = Clearance in rat at 2 mg/kg, iv measured upto 24 hrs by LC-MS/MS analysis; type: ADME, organism-based; conditions: in vivo
Klebsiella pneumoniae [17] = assay: Bactericidal activity against Klebsiella pneumoniae ATCC 13883 assessed as reduction in survival rate by colony counting method; type: functional
[18] = Volume of distribution at steady state in rat at 2 mg/kg, iv measured upto 24 hrs by LC-MS/MS analysis; type: ADME, organism-based; conditions: in vivo, iv, 2 mg/kg, 24 h
[19] = Initial plasma concentration in rat at 2 mg/kg, iv measured upto 24 hrs by LC-MS/MS analysis; type: ADME, organism-based; conditions: in vivo, iv, 2 mg/kg, 24 h
[20] = Half life in rat at 2 mg/kg, iv measured upto 24 hrs by LC-MS/MS analysis; type: ADME, organism-based; conditions: in vivo
Klebsiella pneumoniae [21] = assay: Antibacterial activity against Klebsiella pneumoniae ATCC 13883 infected in Kunming mouse model assessed as reduction in bacterial proliferation at 2 mg/kg, iv in presence of biphenyl isopropyl ester; type: functional, organism-based

Chain of Programmed cell death 1 ligand 1 (Homo sapiens) (Q9NZQ7 whole entry): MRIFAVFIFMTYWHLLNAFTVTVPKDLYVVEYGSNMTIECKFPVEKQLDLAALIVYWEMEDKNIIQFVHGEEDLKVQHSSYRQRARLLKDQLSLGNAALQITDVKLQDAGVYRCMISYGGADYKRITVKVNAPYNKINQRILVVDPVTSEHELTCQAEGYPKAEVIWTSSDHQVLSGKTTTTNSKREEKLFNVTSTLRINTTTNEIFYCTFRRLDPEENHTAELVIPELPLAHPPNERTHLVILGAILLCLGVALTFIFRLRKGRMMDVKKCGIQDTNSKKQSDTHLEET
Chain of Programmed cell death protein 1/Programmed cell death 1 ligand 1 (Q15116 whole entry): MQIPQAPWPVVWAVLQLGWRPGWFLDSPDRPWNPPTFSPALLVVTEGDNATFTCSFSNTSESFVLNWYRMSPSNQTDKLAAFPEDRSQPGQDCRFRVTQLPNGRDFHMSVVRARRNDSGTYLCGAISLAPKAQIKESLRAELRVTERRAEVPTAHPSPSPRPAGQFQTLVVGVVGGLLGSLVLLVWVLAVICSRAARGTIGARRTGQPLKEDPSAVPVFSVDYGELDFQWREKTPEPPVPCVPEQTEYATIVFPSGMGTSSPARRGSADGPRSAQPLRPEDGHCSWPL
Chain of Programmed cell death protein 1/Programmed cell death 1 ligand 1 (Q9NZQ7 whole entry): as the sequence (Q9NZQ7 whole entry) above

MIC50 (Salmonella typhimurium)	MIC50 (Klebsiella pneumoniae [10])	MIC50 (Escherichia coli)	MIC50 (Pseudomonas aeruginosa [11])	SMILES	inhibition zone (IZ) (Pseudomonas aeruginosa [9])	inhibition zone (IZ) (Klebsiella pneumoniae [13])	other results
				CC(C)OC(=O)[C@@H](CO)NCc1cc(Cl)c(OCc2cccc(-c3ccccc3)c2Br)cc1OCc1cccnc1			Activity (Klebsiella pneumoniae [1]): Active; Kd [2]: 0.000401 µM; deltaH [3]: 4.74 kJ/mol; Kd [4]: 0.000254 µM
1 mg/L	0.5 mg/L	0.5 mg/L	0.5 mg/L	Cc1c(COc2cccc(CNC(CO)C(=O)NO)c2)cccc1-c1ccccc1 (configuration not stated)	13.8 mm	15.2 mm	Activity (Klebsiella pneumoniae [5]): Active; Kd [2]: 0.000873 µM; Activity (Klebsiella pneumoniae [6]): Active; IC50 [7]: 8.4 µM; Ka [8]: 4.17 10^5/M; IC50 (HeLa): > 50 µM; IC50 [12]: 0.109 µM; deltaH [3]: 4.16 kJ/mol; IC50 (A549): > 50 µM; Kd [4]: 0.000135 µM
0.5 mg/L	0.5 mg/L	2 mg/L	1 mg/L	C[C@H](O)[C@H](NC(=O)c1ccc(C#Cc2ccc(CN3CCOCC3)cc2)cc1)C(=O)NO	13.5 mm	14.2 mm	Activity (Klebsiella pneumoniae [5]): Active; Activity (Klebsiella pneumoniae [14]): Active; AUC(0-t) at 24 h [15]: 0.289 µg·h/mL; clearance [16]: 4.54 L/h/kg; Activity (Klebsiella pneumoniae [6]): Active; Activity (Klebsiella pneumoniae [17]): 83%; Vdss [18]: 1.42 L/kg; C0 [19]: 0.332 µg/mL; half-life [20]: 32.4 min; Activity (Klebsiella pneumoniae [21]): Active
4 mg/L	≥ 16 mg/L	≥ 16 mg/L	4 mg/L	Cc1c(COc2cccc(CN3CCCC3C(=O)NO)c2)cccc1-c1ccccc1 (configuration not stated)	<=6 mm	7.2 mm	
4 mg/L	8 mg/L	≥ 16 mg/L	4 mg/L	COc1cc(OCc2cccc(-c3ccccc3)c2C)cc(OC)c1CNC(CO)C(=O)NO (configuration not stated)	8.1 mm	<=6 mm	
≥ 16 mg/L	1 mg/L	2 mg/L	1 mg/L	COc1cc(OCc2cccc(-c3ccccc3)c2C)cc(OC)c1CN1CCCC1C(=O)NO (configuration not stated)	9.1 mm	11.3 mm	
2 mg/L	0.5 mg/L	1 mg/L	1 mg/L	Cc1c(CN2CCC(C(=O)N3CCCC3C(=O)NO)CC2)cccc1-c1ccccc1 (configuration not stated)	12.6 mm	14.4 mm	Activity (Klebsiella pneumoniae [5]): Active; Kd [2]: 0.000873 µM; Activity (Klebsiella pneumoniae [6]): Active; IC50 [7]: 4.3 µM; Ka [8]: 4.59 10^5/M; IC50 (HeLa): > 50 µM; IC50 [12]: 0.318 µM; deltaH [3]: 3.08 kJ/mol; IC50 (A549): > 50 µM; Kd [4]: 0.000135 µM
4 mg/L	1 mg/L	2 mg/L	1 mg/L	COc1cc(OCc2cccc(-c3ccccc3)c2C)cc(OC)c1CNC(C(=O)NO)C(C)O (configuration not stated)	8.9 mm	9.4 mm	
4 mg/L	4 mg/L	8 mg/L	≥ 16 mg/L	Cc1c(COc2cccc(CNC(C(=O)NO)C(C)C)c2)cccc1-c1ccccc1 (configuration not stated)	6.6 mm	8.6 mm	
≥ 16 mg/L	≥ 16 mg/L	4 mg/L	8 mg/L	COc1cc(OCc2cccc(-c3ccccc3)c2C)cc(OC)c1CNC(C(=O)NO)C(C)C (configuration not stated)	6.3 mm	<=6 mm	
4 mg/L	4 mg/L	2 mg/L	8 mg/L	Cc1c(CN2CCC(C(=O)NC(C(=O)NO)C(C)C)CC2)cccc1-c1ccccc1 (configuration not stated)	<=6 mm	9.5 mm	
8 mg/L	2 mg/L	≥ 16 mg/L	4 mg/L	Cc1c(CN2CCC(C(=O)NC(CO)C(=O)NO)CC2)cccc1-c1ccccc1 (configuration not stated)	10.1 mm	11.6 mm	
1 mg/L	0.5 mg/L	2 mg/L	1 mg/L	Cc1c(CN2CCC(C(=O)NC(C(=O)NO)C(C)O)CC2)cccc1-c1ccccc1 (configuration not stated)	14.1 mm	15.8 mm	

SMILES	MIC50 (Salmonella typhimurium)	MIC50 (Klebsiella pneumoniae [10])	MIC50 (Escherichia coli)	MIC50 (Pseudomonas aeruginosa [11])	inhibition zone (IZ) (Pseudomonas aeruginosa [9])	inhibition zone (IZ) (Klebsiella pneumoniae [13])	other results
CCn1cc(C(=O)O)c(=O)c2cc(F)c(N3CCNCC3)cc21 [NORFLOXACIN]	2 mg/L	1 mg/L	0.5 mg/L	1 mg/L	14.8 mm	15.9 mm	
